Measurements published in patent US20060063711A1, “Use of sglt homolog” (priority 2002, published 2006).

How the values were obtained:
[1] = target: T1, human SGLT homolog (Homo sapiens, UniProt Q2M3M2, I269M); experiment: kinetic analysis of glucose uptake in human SGLT homolog-transfected COS7 cells
T1 sequence (Q2M3M2 8-681 I269M limits assumed): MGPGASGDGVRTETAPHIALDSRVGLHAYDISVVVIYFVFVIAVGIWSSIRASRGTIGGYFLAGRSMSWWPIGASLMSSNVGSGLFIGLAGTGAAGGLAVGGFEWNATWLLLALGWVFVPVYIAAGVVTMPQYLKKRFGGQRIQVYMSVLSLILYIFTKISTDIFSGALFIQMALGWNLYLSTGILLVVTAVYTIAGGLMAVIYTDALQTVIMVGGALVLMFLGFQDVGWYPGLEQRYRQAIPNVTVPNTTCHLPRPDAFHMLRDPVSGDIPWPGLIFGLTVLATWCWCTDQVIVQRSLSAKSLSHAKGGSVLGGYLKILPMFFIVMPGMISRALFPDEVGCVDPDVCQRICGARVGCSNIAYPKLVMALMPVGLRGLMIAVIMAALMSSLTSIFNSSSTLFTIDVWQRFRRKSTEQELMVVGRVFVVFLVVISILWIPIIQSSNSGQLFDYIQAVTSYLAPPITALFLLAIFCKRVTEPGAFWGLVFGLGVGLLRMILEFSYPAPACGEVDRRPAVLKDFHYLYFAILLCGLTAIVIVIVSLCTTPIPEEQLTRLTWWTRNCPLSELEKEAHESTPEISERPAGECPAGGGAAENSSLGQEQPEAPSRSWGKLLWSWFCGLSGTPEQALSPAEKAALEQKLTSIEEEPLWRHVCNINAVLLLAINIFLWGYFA
Method: (§2) The human SGLT homolog or the human SGLT1-transfected COS7 cells were prepared and subjected to kinetic analysis of glucose uptake, respectively. […] The cells were plated on 100 μl of DMEM medium containing 10% FBS charged in a 96-well plate in a cell density of 3×10^4 cells/well, followed by culturing overnight at 37° C. […] Then 90 μl each of the thus prepared mixtures was added per well. In addition, 10 μl each of α-methyl glucose in a final concentration of 1 mM, which contained 0.02 μCi of [^14C]-α-methyl glucose (Amersham Pharmacia Biotech, Inc.), was added per well to carry out a glucose uptake reaction for an hour. After washing 3 times with 200 μl of chilled PBS, 100 μl each of liquid scintillator was added per well and the radioactivity of ^14C taken up into the cells was counted with a scintillation counter to determine Km and Vmax in the glucose uptake.

[2] = target: T2, human SGLT1 (Homo sapiens, UniProt P13866); experiment: kinetic analysis of glucose uptake in human SGLT1-transfected COS7 cells
T2 sequence (P13866 1-664): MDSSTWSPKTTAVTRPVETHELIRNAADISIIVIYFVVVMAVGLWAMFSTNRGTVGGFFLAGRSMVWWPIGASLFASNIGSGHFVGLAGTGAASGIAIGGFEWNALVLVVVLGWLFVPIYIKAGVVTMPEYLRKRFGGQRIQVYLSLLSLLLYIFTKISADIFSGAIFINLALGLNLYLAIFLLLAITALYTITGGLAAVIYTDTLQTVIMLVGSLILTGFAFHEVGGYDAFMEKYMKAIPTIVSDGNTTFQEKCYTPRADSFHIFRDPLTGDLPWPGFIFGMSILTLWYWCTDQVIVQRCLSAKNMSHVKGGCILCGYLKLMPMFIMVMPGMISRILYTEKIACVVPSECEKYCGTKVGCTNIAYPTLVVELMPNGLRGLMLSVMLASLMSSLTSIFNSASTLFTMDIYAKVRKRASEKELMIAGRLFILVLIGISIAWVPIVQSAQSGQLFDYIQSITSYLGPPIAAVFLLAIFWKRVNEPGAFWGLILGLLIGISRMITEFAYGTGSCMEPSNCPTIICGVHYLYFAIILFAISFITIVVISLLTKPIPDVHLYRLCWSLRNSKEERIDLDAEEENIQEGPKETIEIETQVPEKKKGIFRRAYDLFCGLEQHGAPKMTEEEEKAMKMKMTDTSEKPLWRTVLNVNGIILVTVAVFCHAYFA
Method: as §2

[3] = target: T1, human SGLT homolog; experiment: substrate specificity, α-methyl glucose uptake test in human SGLT homolog-transfected COS7 cells; assay type: cell-based; parameters: expressed in transfected cells; host or cells: COS7 cells; conditions: sugar added at 0, 1 and 10 mM
Method: (§1) The human SGLT homolog or human SGLT1-transfected COS7 cells were prepared and the respective substrate specificities were examined. The α-methyl glucose uptake test was carried out in accordance with the procedures described in Am. J. Physiol., 270: G833-G843, 1996 and J. Clin. Invest., 93: 397-404, 1994. The cells were plated on 100 μl of DMEM medium containing 10% FBS charged in a 96-well plate in a cell density of 3×10^4 cells/well, followed by culturing overnight at 37° C. Each well was washed 3 times with a reaction buffer solution supplemented with 125 mM N-Methyl-D-Glucamine (1.2 mM KH2PO4, 2.5 mM CaCl2, 1.2 mM MgSO4, 4 mM Glutamine, 10 mM HEPES (pH 7.2), 0.1 mg/ml BSA) and further cultured for an hour in the same buffer solution to remove the glucose remained in the cells. Next, 150 mM NaCl was added to the reaction buffer solution above and glucose or galactose was added to the mixture in 0, 1 and 10 mM, respectively. Then 90 μl each of the thus prepared mixtures was added per well. […] After washing 3 times with 200 μl of chilled PBS, 100 μl each of liquid scintillator was added per well and the radioactivity of ^14C taken up into the cells was counted with a scintillation counter.

[4] = target: T2, human SGLT1; experiment: substrate specificity, α-methyl glucose uptake test in human SGLT1-transfected COS7 cells; assay type: cell-based; parameters: expressed in transfected cells; host or cells: COS7 cells; conditions: sugar added at 0, 1 and 10 mM
Method: as §1

[5] = read-out: Km in the glucose uptake, α-methyl glucose 0 to 20 mM, 150 mM NaCl
[6] = α-methyl glucose 0 to 20 mM, 150 mM NaCl

| Km [1, 5] | Vmax in the glucose uptake [1, 6] | Km [2, 5] | Vmax in the glucose uptake [2, 6] | affinity (competition of α-methyl glucose uptake) [3] | affinity (competition of α-methyl glucose uptake) [4] | Compound |
| --- | --- | --- | --- | --- | --- | --- |
| 7.9 mM | 8.0 nmol/hour/106 cells | 1.8 mM | 3.9 nmol/hour/106 cells |  |  | COC1OC(CO)C(O)C(O)C1O (stereo not drawn) [α-methyl glucose] |
|  |  |  |  | little affinity | had affinity | O=C[C@H](O)[C@@H](O)[C@@H](O)[C@H](O)CO [galactose] |
